Tests used:
[1] = Dynamic vapor sorption (DVS) humidity cycling, solid analysed by XRPD; assay type: physicochemical; conditions: start 50% relative humidity, up to 90%, down to 0%, 10% steps, cycle repeated 3 times
Method: (§1) XRPD patterns are obtained using a Bruker D8 Advance equipped with a Cu Kα radiation source (λ=1.54 Å), a 9-position sample holder and a LYNXEYE super speed detector. Samples are placed on zero-background, silicon plate holders for analysis. One skilled in the art would recognize that the ° 2θ values and the relative intensity values are generated by performing a peak search on the measured data and the d-spacing values are calculated by the instrument from the ° 2θ values using Bragg's equation. One skilled in the art would further recognize that the relative intensity for the measured peaks may vary as a result of sample preparation, orientation and instrument used, for example.
In another embodiment, amorphous fedratinib diHCl is prepared by: • a) subjecting Form A of fedratinib diHCl to a dynamic vapor sorption method to yield amorphous fedratinib diHCl, wherein the dynamic vapor sorption method comprises exposing the Form A of fedratinib diHCl to a relative humidity of about 50% and adjusting the relative humidity to between about 0-90% with about a 10% increase or decrease in humidity at each step for 3 cycles.
Form A of fedratinib diHCl is subjected to DVS with initial exposure to 50% relative humidity. The relative humidity is then increased to 90% with a 10% increase in humidity at each step. […]

[2] = Retention of Form A on slurrying in multiple solvents (XRPD); assay type: physicochemical; conditions: ~30 mg in 0.2 mL of each of water, ethanol, MTBE, IPA, IPAc, 3-methyl-1-butanol, toluene, anisole, acetone, THF, MEK, MIBK, DCM, 1,4-dioxane, 2-butanol, 2-methyl THF, isobutyl acetate, tert-butanol, methyl cyclohexane, CPME; slurried about 3 days at 20° C.
Method: as §1
In another embodiment, Form A of fedratinib diHCl is retained by producing a slurry. […]

Cc1cnc(Nc2ccc(OCCN3CCCC3)cc2)nc1Nc1cccc(S(=O)(=O)NC(C)(C)C)c1 [Form A of fedratinib diHCl, N-tert-butyl-3-[[5-methyl-2-[4-(2-pyrrolidin-1-ylethoxy)anilino]pyrimidin-4-yl]amino]benzenesulfonamide]
solid form by XRPD after DVS [1]: determined to be amorphous fedratinib diHCl | solid form by XRPD after slurry [2]: determined to be Form A of fedratinib diHCl

From patent publication US11306062B2, “Forms of fedratinib dihydrochloride” (Johnson Matthey Public Limited Company, priority 2019, dated 2022)
